In US10617660B2, “Compositions containing benzoate compound and tannic acid for treating central nervous system disorders” (SyneuRx International (Taiwan) Corp., priority 2016, dated 2020):
“Also recorded” adds a separate entry of the source.

Assays:
MK801-treated mice [1] = test: Open field test of spontaneous locomotor activity (MK801-induced hyper-locomotion); type: in vivo; conditions: for effect on MK801-induced hyperactivity (total distance traveled in open field test): oral gavage, cohort 1, FIG. 2
Protocol: (§1) C57BL/6J male mice were group housed (3-5 mice per cage) with food and water available ad libitum in polysulfone ventilated cages (Alternative Design, AR, USA) in the animal rooms. The colony was maintained on a 12/12-h light/dark cycle at the temperature of 22±2° C. and all behavioral studies will be performed during the dark cycle. All animals used in this study were adult mice (at least 2.5 months of age).
The mice were randomly assigned into six groups listed below:
Group 3: Sodium benzoate (1000 mg/kg)+MK801
Group 4: Sodium benzoate (200 mg/kg)+MK801 […]
Group 6: Sodium benzoate (200 mg/kg)+Tannic Acid (60 mg/kg)+MK801.
Each mouse in Groups 2-6 received an acute administration of MK801 dissolved in normal saline (0.1 mg/kg, i.p.) 20 minutes prior to the behavioral tests. […]
(§2) All mice of cohort 1 in this study were assessed with open field test as described herein. The mice of cohorts 2 and 3 in this study were assessed with prepulse inhibition test as described herein.
The open field test is a common measurement of novelty induced exploratory behavior and general activity in both mice and rats. In this study, mice were placed in a Plexiglas cage (37.5 cm×21.5 cm×18 cm) under 50-65 lux light intensity. Their spontaneous locomotor activities were measured for 60 minutes using the EthoVision video tracking system (Noldus Information Technology, the Netherlands). The travel distance of each mouse was measured as an index of locomotion activity. It generates hyperactivity which is frequently applied as animal models including, but not limited to, schizophrenia, bipolar disorder, attention-deficit hyperactivity disorder, obsessive compulsive disorder, Tourette's syndrome, autism spectrum disorders, Fragile X syndrome, Parkinson's disease, dementia with Lewy bodies, and senile dementia (see Rubia et al., 2010; Sheppard and Bradshaw, 1999; Bent et al., 2014; Powell and Miyakawa, 2006; Nestler and Hyman, 2010; Bubeni{acute over ( )}kova{acute over ( )}-Vales{hacek over ( )}ova et al., 2008; Gobira et al., 2013; Lai et al., 2014; Maio et al., 2014; Sontag et al., 2010; Ding et al., 2014; Walitza et al., 2007; Finestone et al., 1982; Golimstok et al., 2011).

MK801-treated mice [2] = test: Prepulse inhibition test of sensorimotor gating function (MK801-disrupted PPI); type: in vivo
Protocol: as §1
The mice were randomly assigned into ten groups listed below:
Group 9: Sodium benzoate (1000 mg/kg)+MK801
Group 10: Sodium benzoate (200 mg/kg)+MK801
Group 11: Sodium benzoate (600 mg/kg)+MK801
Group 12: Sodium benzoate (200 mg/kg)+Tannic Acid (30 mg/kg)+MK801
Group 13: Sodium benzoate (200 mg/kg)+Tannic Acid (60 mg/kg)+MK801
Group 14: Sodium benzoate (600 mg/kg)+Tannic Acid (10 mg/kg)+MK801
Group 15: Sodium benzoate (600 mg/kg)+Tannic Acid (30 mg/kg)+MK801
Group 16: Sodium benzoate (600 mg/kg)+Tannic Acid (60 mg/kg)+MK801.
Each mouse in Groups 8-16 received an acute administration of MK801 dissolved in normal saline (0.1 mg/kg, i.p.) 20 minutes prior to the behavioral tests. Each mouse in Groups 9-16 received an acute administration of sodium benzoate or sodium benzoate in combination with tannic acid (dissolved in PBS, 10, 30 or 60 mg/kg) via oral gavage 20 minutes prior to the MK801 administration.
The mice were randomly assigned into five groups listed below:
Group 19: Tannic acid_10 mg/kg+MK801
Group 20: Tannic acid_30 mg/kg+MK801
Each mouse in Groups 18-21 received an acute administration of MK-801 (a NMDA receptor antagonist, dissolved in normal saline (0.1 mg/kg, i.p.) 20 minutes prior to behavioral tests. On the other hand, each mouse in Groups 19-21 received an acute administration of tannic acid (dissolved in 30% PEG400 in PBS, 10, 30 or 100 mg/kg) via oral gavage 20 minutes prior to the MK801 administration.
as §2
Prepulse inhibition was used as an index of sensorimotor gating function using SR-LAB startle apparatus (San Diego Instruments, San Diego, Calif., USA). The startle stimulus was a 40 ms, 120 dB white noise burst. In the pre-pulse (pp)+pulse trials, a 20 ms white noise pre-pulse stimuli of 82 dB (pp10) or 90 dB (pp18) was presented 100 ms before a 40 ms 120 dB pulse. The trials were presented pseudo-randomly and separated by inter-trial interval of 15 s on average (varying between 10 to 20 s) under 72 dB background noise. The percentage of pre-pulse inhibition was evaluated by the following formula: % PPI=100×[(PA score)−(pp-P score)]/(PA score), where the PA score was the average of the PA value in the middle blocks.

[3] = MK801 0.1 mg/kg i.p., 20 minutes prior to test, model-inducing agent

C[C@]12N[C@H](Cc3ccccc31)c1ccccc12 [MK801]
effect on locomotion (total distance traveled in open field test) (MK801-treated mice [1]; [3]): induced hyperactivity
effect on prepulse inhibition (MK801-treated mice [2]; [3]): impairs prepulse inhibition

O=C([O-])c1ccccc1.[Na+] [sodium benzoate]
effect on MK801-induced hyperactivity (total distance traveled in open field test) (MK801-treated mice [1]; sodium benzoate 200 mg/kg alone, MK801 0.1 mg/kg i.p.): less effective
effect on MK801-induced hyperactivity (total distance traveled in open field test) (MK801-treated mice [1]; sodium benzoate 1000 mg/kg alone, MK801 0.1 mg/kg i.p.): rescued/protected mice from MK801 induced hyper-locomotion more than 200 mg/kg; also recorded: completely prevented
effect on rescuing MK801-disrupted PPI (MK801-treated mice [2]; sodium benzoate alone 200 mg/kg or 600 mg/kg, oral gavage, cohort 2, prepulse 82 dB and 90 dB): did not show much effects
effect on MK801-impaired prepulse inhibition (percentage of pre-pulse inhibition) (MK801-treated mice [2]; sodium benzoate alone at 200, 600 or 1000 mg/kg, FIG. 3 legend): can be improved

O=C(OC[C@H]1O[C@@H](OC(=O)c2cc(O)c(O)c(OC(=O)c3cc(O)c(O)c(O)c3)c2)[C@H](OC(=O)c2cc(O)c(O)c(OC(=O)c3cc(O)c(O)c(O)c3)c2)[C@@H](OC(=O)c2cc(O)c(O)c(OC(=O)c3cc(O)c(O)c(O)c3)c2)[C@@H]1OC(=O)c1cc(O)c(O)c(OC(=O)c2cc(O)c(O)c(O)c2)c1)c1cc(O)c(O)c(OC(=O)c2cc(O)c(O)c(O)c2)c1 [tannic acid]
effect on rescuing MK801-induced hyper-locomotion (MK801-treated mice [1]; tannic acid alone, dose not given): little or no effect
effect on MK801-disrupted PPI (MK801-treated mice [2]; tannic acid alone 10, 30, 100 mg/kg, oral gavage, MK801 0.1 mg/kg i.p., cohort 3, prepulse 82 dB and 90 dB, FIG. 4): little or no effects; also recorded: little or no improvement; also recorded: little or no impact
